Patent US10501748B2, “Methods and compositions for integration of an exogenous sequence within the genome of plants” (Dow AgroSciences LLC, priority 2013, dated 2019)

Key:
[1] = test system: scutella of cv. Bobwhite MPB26RH and cv. Clearfield Janz (N653/N653); experiment: basal tolerance/resistance to IMAZAMOX at the callus induction stage; assay type: cell-based, Triticum aestivum
Method: The basal tolerance of the donor wheat line cv. Bobwhite MPB26RH and basal resistance of cv. Clearfield Janz (N653/N653) genotype to IMAZAMOX® at the callus induction stage was determined as follows: Scutella of immature zygotic embryos from each wheat line were isolated as described previously and placed in 10 cm PETRI™ dishes containing CIM medium supplemented with 0, 50, 100, 200, 300, 400 and 500 nM IMAZAMOX® respectively. Twenty scutella were placed in each PETRI™ dish. A total of 60 scutella from each of the donor wheat line cv. Bobwhite MPB26RH and cv. Clearfield Janz genotype were tested for basal tolerance and basal resistance response, respectively, at each IMAZAMOX® concentration. After incubation at 24° C. in the dark for 4 weeks, the amount of somatic embryogenic callus formation (SEC) at each IMAZAMOX® concentration was recorded. […] Bobwhite MPB26RH was reduced by about 70% at 100 nM IMAZAMOX®, compared to untreated samples. Callus formation for the cv. Clearfield Janz genotype was unaffected, relative to the untreated control, at any IMAZAMOX® concentrations tested.

[2] = test system: somatic embryogenic callus of cv. Bobwhite MPB26RH; experiment: basal tolerance to IMAZAMOX at the plant regeneration stage; assay type: cell-based, Triticum aestivum; details: 200 nM, 2 weeks, compared to untreated samples
Method: The basal tolerance of the donor wheat line cv. Bobwhite MPB26RH to IMAZAMOX® at the plant regeneration stage was determined as follows: Scutella of immature zygotic embryos from the donor wheat line were isolated as described previously and placed in 10 cm PETRI™ dishes containing CIM medium. Somatic embryogenic callus was allowed to form by incubating at 24° C. in the dark for 4 weeks. The SEC was transferred to 10 cm PETRI™ dishes containing DRM medium supplemented with 0, 100, 200, 300, 400, 500 and 1000 nM IMAZAMOX® respectively. Twenty CIM were placed in each PETRI™ dish. A total of 60 CIM were tested for basal tolerance response at each IMAZAMOX® concentration. After incubation for 2 weeks at 24° C. under a 16/8 (light/dark) hour photoperiod in a growth room, the regeneration response was recorded.

[3] = test system: cv. Clearfield Janz (S653/S653) and (N653/N653) plants; experiment: basal tolerance/resistance to IMAZAMOX at the plant regeneration stage, modified approach (plant growth); assay type: in vivo, Triticum aestivum; details: 3 weeks
Method: The basal tolerance of the cv. Clearfield Janz (S653/S653) genotype and basal resistance of the cv. Clearfield Janz (N653/N653) genotype to IMAZAMOX® at the plant regeneration stage was determined using a modified approach, as cv. […] Seed for each cv. Clearfield Janz genotype was germinated using the aseptic approach described above for producing wheat mesophyll protoplasts. The germinated seedlings were multiplied in vitro by sub-culturing on multiplication medium. Following multiplication, plants for each genotype were transferred to 10 cm PETRI™ dishes containing plant growth medium (MS+10 μM BA+0.8% agar) supplemented with 0, 100, 300, 600, 900, 1200, 1500 and 3000 nM IMAZAMOX®, respectively. Ten plants were placed in each PETRI™ dish. A total of 30 plants per genotype were tested for basal response at each IMAZAMOX® concentration. After incubation for 3 weeks at 24° C. under a 16/8 (light/dark) hour photoperiod in a growth room, the growth response was recorded. […] This response was similar to that observed for the cv. Bobwhite MPB26RH (S653/S653) genotype. In contrast, plant growth for the cv.

[4] = test system: regenerated plants of cv. Bobwhite MPB26RH; experiment: basal tolerance to IMAZAMOX at the plant rooting stage; assay type: in vivo, Triticum aestivum; details: all concentrations tested (100-500 nM), 3 weeks
Method: The basal tolerance of the donor wheat line cv. Bobwhite MPB26RH to IMAZAMOX® at the plant rooting stage was determined as follows: Scutella of immature zygotic embryos from the donor wheat line were isolated as described previously and placed in 10 cm PETRI™ dishes containing CIM medium. Somatic embryogenic callus was allowed to form by incubating at 24° C. in the dark for 4 weeks. The SEC was transferred to 10 cm PETRI™ dishes containing DRM medium and incubated for 2 weeks at 24° C. under a 16/8 (light/dark) hour photoperiod to allow plant regeneration to take place. Regenerated plants were transferred to 10 cm PETRI™ dishes containing RM medium supplemented with 0, 100, 200, 300, 400, 500 nM IMAZAMOX®, respectively. Twenty regenerated plants were placed in each PETRI™ dish. A total of 60 regenerated plants were tested for basal tolerance response at each IMAZAMOX® concentration. After incubation for 3 weeks at 24° C. under a 16/8 (light/dark) hour photoperiod in a growth room, the root formation response was recorded.

[5] = test system: cv. Clearfield Janz (S653/S653) and (N653/N653) plants; experiment: basal tolerance/resistance to IMAZAMOX at the plant rooting stage, modified approach; assay type: in vivo, Triticum aestivum; details: 2 weeks
Method: The basal tolerance of the cv. Clearfield Janz (S653/S653) genotype and basal resistance of the cv. Clearfield Janz (N653/N653) genotype to IMAZAMOX® at the plant rooting stage was determined using a modified approach, as cv. […] Seed for each cv. Clearfield Janz genotype was germinated using the aseptic approach described above for producing wheat mesophyll protoplasts. The germinated seedlings were multiplied in vitro by sub-culturing on multiplication medium. Following multiplication, plants for each genotype were transferred to 10 cm PETRI™ dishes containing plant rooting medium (½ MS, 0.5 mg/L NAA, 0.8% agar) supplemented with 0, 50, 100, 200 and 250 nM IMAZAMOX®, respectively. Three plants were placed in each PETRI™ dish. A total of 6 plants per genotype were tested for basal response at each IMAZAMOX® concentration. After incubation for 2 weeks at 24° C. under a 16/8 (light/dark) hour photoperiod in a growth room, the root formation response was recorded.
Clearfield Janz (N653/N653) genotype was restricted, compared to untreated samples, at 250 nM IMAZAMOX®. […] Clearfield Janz (S653/S653) genotype at all concentrations of IMAZAMOX® tested, compared to untreated samples.

## COCc1cnc(C2=NC(C)(C(C)C)C(=O)N2)c(C(=O)O)c1 (centres unmarked) [IMAZAMOX]
[1]; cv. Bobwhite MPB26RH, 100 nM, 4 weeks, compared to untreated samples
  reduction of SEC formation: about 70%
[1]; cv. Clearfield Janz (N653/N653), any concentration tested (50-500 nM)
  callus formation relative to untreated control: unaffected
[2]
  reduction of plant regeneration: about 80%
[3]; cv. Clearfield Janz (N653/N653)
  concentration above which plant growth was strongly suppressed: exceeded 2,000 nM
[3]; cv. Clearfield Janz (S653/S653), medium containing at least 200 nM
  plant growth compared to untreated samples: severely reduced
[4]
  root formation compared to untreated samples: severely restricted
[5]; cv. Clearfield Janz (N653/N653), 250 nM
  root formation compared to untreated samples: restricted
[5]; cv. Clearfield Janz (S653/S653), all concentrations tested (50-250 nM)
  root formation compared to untreated samples: severely restricted
